Consider one compound from PMC9112550, “Optimization of the antimicrobial peptide Bac7 by deep mutational scanning” (BMC Biology, 2022).

≈ marks a conversion by molar mass, not a printed value.

The subject of assay [1] is E. coli TOP10. It counts as cell-based. To be noted: data not shown. As for the experimental part: Bacterial cells were grown in cation-adjusted Mueller Hinton Broth (MHB II) overnight to stationary phase. The cultures were then supplemented with 200 g l^−1 glycerol, aliquoted, and frozen at −80°C. […] The purified peptides were thawed and the concentration was determined by RP-HPLC as described before. The peptides were diluted with sterile water to 4-fold the desired assays starting concentration and to a final volume of 50 μl. […] The first well of each MIC dilution series was filled with 20 μl of 2-fold concentrated MHB II, wells 2–11 with 20 μl of MHB II, and well 12 with 40 μl MHB II (sterility control). Next, 20 μl of the peptide dilution was added to the first well, mixed, and a log2-serial dilution was performed from wells 1 to 10 (20 μl transfer volume). Well 11 served as growth control (i.e., no peptide added). In the last step, 20 μl of the bacterial cell suspension was added to wells 1–11 either using the pipetting robot (E. coli TOP10, BW25113, BW25113 ΔsbmA, and ATCC 25922) or by manual pipetting (E. coli clinical isolates). The plates were sealed airtight and incubated for 18 h without shaking at 37°C before reading the OD using an Infinite 200 PRO plate reader (Tecan, Männedorf, CH). […] All MIC experiments were determined in technical replicate.

Assay [2] deals with E. coli TOP10. Description: Membrane damage assay in MHB II (GFP loss, PI uptake). In kind it is cell-based. As to conditions: at its MIC.

As a reminder, the MIC is the least concentration at which growth counts as inhibited. The compound `CC[C@H](C)[C@H](NC(=O)CN)C(=O)NCC(=O)N[C@@H](C)C(=O)N[C@H](C(=O)N[C@@H](CC(C)C)C(=O)N[C@@H](CCCCN)C(=O)N[C@H](C(=O)N[C@@H](CC(C)C)C(=O)N[C@H](C(=O)N[C@H](C(=O)NCC(=O)N[C@@H](CC(C)C)C(=O)N1CCC[C@H]1C(=O)N[C@@H](C)C(=O)N[C@@H](CC(C)C)C(=O)N[C@H](C(=O)N[C@@H](CO)C(=O)N[C@@H](Cc1c[nH]c2ccccc12)C(=O)N[C@H](C(=O)N[C@@H](CCCCN)C(=O)N[C@@H](CCCNC(=N)N)C(=O)N[C@@H](CCCCN)C(=O)N[C@@H](CCCNC(=N)N)C(=O)N[C@@H](CCC(N)=O)C(=O)N[C@@H](CCC(N)=O)C(N)=O)[C@@H](C)CC)[C@@H](C)CC)[C@@H](C)O)[C@@H](C)O)C(C)C)C(C)C` [melittin] came in with a minimal inhibitory concentration (MIC) against E. coli TOP10 [1] of 5.0 µM (≈ 14.2 µg/mL). The “PI uptake and loss of GFP” value in the assay on E. coli TOP10 [2] was “rapidly induced PI uptake and loss of GFP”.
